We go through 1 molecule from patent US11345825B2, “Aqueous pigment dispersion” (KAO CORPORATION, priority 2016, dated 2022).

The data set can be described thus: Measurement of pKa of ethanolamine (potentiometric titration). The conditions noted are these: aqueous solution of the ethanolamine.

SMILES strings stand for the structures.

In general, pKa refers to the pH at which an ionisable group is half protonated. High values mean a group that holds its proton tightly, low ones a group that gives up its proton readily. The molecule `COCCOCCN(CCOCCOC)CCOCCOC` [Tris[2-(2-methoxyethoxy)ethyl]amine, tris[2-(2-methoxyethoxy)ethyl]amine] showed a pKa of 7.48.
